Source: US20250360167A1 (Keryx Biopharmaceuticals, Inc., priority 2013, published 2025)

Assay: BET active surface area
Format: physicochemical
From the text: BET theory explains the physical adsorption of gas molecules onto a solid surface. The theory serves as the basis for the measurement of the specific surface area of a material. This theory allows the calculation of surface areas of materials in a very accurate manner and is thus capable of distinguishing differences between separate preparations of what would otherwise appear to be the same material. For example, activated carbon is a form of carbon that has been processed to make it extremely porous and thus to have a very large surface area. Activated carbon has been experimentally determined, using calculations derived from BET theory, to have a surface area of around 3000 m^2 g^−1.

[1] = Table 1, one value given per pair of samples

For O=C([O-])CC(O)(CC(=O)[O-])C(=O)[O-].[Fe+3] [RFS-12-1], the “BET Active Surface Area” value [1] was 0.61 and the “BET Active Surface Area” value (Tables 2 and 3) was 0.61 m^2/g.
For O=C([O-])CC(O)(CC(=O)[O-])C(=O)[O-].[Fe+3] [STM-182-1], the “BET Active Surface Area” value [1] was 19.85.
